Data reported in PubChem BioAssay (NCI).
Where “and” joins values, the source holds several entries; their conditions need not be identical. Identical values can stand only once.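 Interpolation was linear, between the two tested concentrations surrounding the appropriate level; five concentrations were tested over 48 hours in 96-well plates. Here, GI50 denotes the concentration required for 50% inhibition of growth. At the TGI there is no net growth.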

What was measured:
Test in all cases: growth of human tumour cells (NCI), 48 h
[1] = system: OVCAR-5 ovarian
[2] = system: BT-549 breast
[3] = system: NCI/ADR-RES ovarian
[4] = system: T-47D breast
[5] = system: SK-MEL-5 melanoma
[6] = system: MDA-MB-435
[7] = system: SF-539 CNS
[8] = system: SF-295 CNS
[9] = system: K-562 leukemia
[10] = system: RXF 393 renal

| SMILES | GI50 [1] | TGI [1] | GI50 [2] | TGI [2] | GI50 [3] | TGI [3] | GI50 [4] | TGI [4] | GI50 [5] | TGI [5] | GI50 [6] | TGI [6] | GI50 [7] | TGI [7] | GI50 [8] | TGI [8] | GI50 [9] | TGI [9] | GI50 [10] | TGI [10] |
| --- | --- | --- | --- | --- | --- | --- | --- | --- | --- | --- | --- | --- | --- | --- | --- | --- | --- | --- | --- | --- |
| Cc1ccc(NC(=O)c2ccc(NC3=C(Cl)C(=O)N(Cc4ccccc4)C3=O)cc2)cc1Cl | 0.774 µM | 10.2 µM | 1.04 µM | 5.09 µM | 3.78 µM | 21.7 µM | 2.8 µM | 14.5 µM | 12 µM | 24.3 µM | 24 µM | > 100 µM | 2.47 µM | 16.4 µM | 19.9 µM | > 100 µM | 2.23 µM | 12 µM |  |  |
| Cc1cn2c(/C=C3/C(=O)Nc4ccc(C(=O)O)cc43)c(C)nc2s1 | > 100 µM | > 100 µM | > 100 µM | > 100 µM | > 100 µM | > 100 µM | > 100 µM | > 100 µM | > 100 µM | > 100 µM | > 100 µM | > 100 µM | > 100 µM | > 100 µM | > 100 µM | > 100 µM | > 100 µM | > 100 µM |  |  |
| CCN(CC)CCCNc1c2ccc(Cl)cc2nc2ccc(OC)cc12 |  |  | 1.78 µM | 3.63 µM |  |  |  |  | 1.64 µM | 3.02 µM | 0.0614 µM | 2.04 µM |  |  |  |  | 0.0308 µM | 6.08 µM | 0.0403 µM | 2.15 µM |
| CN(C)CCNC(=O)c1cccc2cc3ccc4ccccc4c3nc12 |  | 0.706 µM |  |  |  |  |  |  |  | 0.358 µM |  |  |  | 0.39 µM |  | 0.886 µM |  | > 100 µM |  | 0.267 µM |
| C1CCN2CC3CONC3C2C1 (stereo not drawn) |  | > 100 µM |  |  |  |  |  |  |  | > 100 µM |  |  |  | > 100 µM |  | > 100 µM |  | > 100 µM |  | > 100 µM |
| C=C(C)[C@@H]1CC[C@]2(C(=O)n3ccnc3)CC[C@]3(C)[C@H](CC[C@@H]4[C@@]5(C)CCCNC(C)(C)[C@@H]5CC[C@]43C)[C@@H]12 | 2.25 µM | 6.4 µM |  |  | 1.7 µM | 3.66 µM | 1.53 µM | 3.54 µM | 1.56 µM | 2.9 µM |  |  | 1.58 µM | 3.03 µM | 1.69 µM | 3.24 µM |  |  | 1.5 µM | 2.92 µM |
| CC(C)(C)c1cc(C(OCCl)(C(F)(F)F)C(F)(F)F)c2c(c1)C(C(F)(F)F)(C(F)(F)F)OC21c2ccccc2C(=O)c2ccccc21 |  | > 100 µM |  |  |  |  |  |  |  | > 100 µM |  |  |  | > 100 µM |  | > 100 µM |  | > 100 µM |  | > 100 µM |
| CC1CCC2c3c([nH]c4ccccc34)C3C(=O)N(c4ccccc4)C(=O)C3C2C1 (stereo not drawn) |  |  |  |  |  |  |  |  |  |  |  |  | 34 µM | 27.6 µM and > 250 µM | 66.3 µM | > 250 µM | 54.8 µM | 202 µM |  | 33.7 µM |
| O=S(=O)(NCCCNc1nccc(-c2c(-c3cccc(F)c3)nc3occn23)n1)c1cccc2ccccc12 | 9.6 µM | > 100 µM | 4.44 µM | > 100 µM | 5.52 µM | > 100 µM | 2.59 µM | > 100 µM | 3.67 µM | 43.6 µM | 3.75 µM | > 100 µM | > 100 µM | > 100 µM | 5.5 µM | > 100 µM | 2.87 µM | > 100 µM |  |  |
| CC1=C(C(=O)CC(=O)C(=O)Nc2ccccc2C)Sc2ccccc2N1 |  | > 100 µM |  |  |  |  |  |  |  | > 100 µM |  |  |  | > 100 µM |  | > 100 µM |  | > 100 µM |  | > 100 µM |
| CC(=O)OC1COC(Oc2c(C)c3c4c(c2O)[C@@H](C)CC[C@@H]4[C@@H](C)C[C@H]3C=C(C)C)C(O)C1O (stereo partly drawn) | 18.1 µM | 37.3 µM |  |  | 15.3 µM | 31.3 µM | 33.2 µM | > 100 µM | 16.4 µM | 34.1 µM | 15.4 µM | 30.6 µM |  |  | 17.9 µM | 35.3 µM | 10.3 µM | 27.1 µM | 19.8 µM | 42.3 µM |
| O=C(Nc1ccc(Cl)c(Cl)c1)C1C(=O)N(c2ccc(Cl)c(Cl)c2)C(=O)/C1=N\O (stereo not drawn) |  | > 100 µM |  |  |  |  |  |  |  | > 100 µM |  |  |  | > 100 µM |  | > 100 µM |  | > 100 µM |  |  |
| O=C1c2ccoc2C(=O)c2oc(=O)ccc21 |  | 33.9 µM |  |  |  |  |  |  |  | 3.15 µM |  |  |  | 8.31 µM |  | 31.5 µM |  | 22.4 µM |  | 15.1 µM |
| Cn1cc(NC(=O)c2cc(NC(=O)CCCCCCCC(=O)Nc3cc(C(=O)Nc4cc(C(=O)NCCC(=N)N)n(C)c4)n(C)c3)cn2C)cc1C(=O)NCCC(=N)N |  | > 100 µM |  |  |  |  |  |  |  | 22.3 µM |  |  |  | 33.1 µM |  | > 100 µM |  | > 100 µM |  | 41.3 µM |
| CCOC(=O)C1=CSC2=NC3=C(CCC/C3=C\c3cc(OC)c(OC)c(OC)c3)C(c3cc(OC)c(OC)c(OC)c3)N12 (stereo not drawn) | > 100 µM | > 100 µM | 2.64 µM | > 100 µM |  |  | 3.83 µM | > 100 µM |  |  |  |  |  |  |  |  |  |  |  |  |
| NC(=O)C(=O)Cc1nc2ccccc2s1 |  | > 100 µM |  |  |  |  |  |  |  |  |  |  |  | > 100 µM |  | > 100 µM |  | > 100 µM |  | > 100 µM |
| O=c1[nH]c(=O)n(C2CC(O)C(O)C(CO)O2)cc1F (stereo not drawn) |  | > 100 µM |  |  |  |  |  |  |  |  |  |  |  | > 100 µM |  | > 100 µM |  | > 100 µM |  | > 100 µM |
| O=C1c2ccccc2-c2c1c1ccc([N+](=O)[O-])cc1c(=O)n2CCCCl | > 100 µM | > 100 µM | 13.3 µM | > 100 µM | 24.1 µM | > 100 µM |  |  | 0.874 µM | 5.89 µM | 31.7 µM | > 100 µM |  |  | 2.25 µM | > 100 µM | 25.7 µM | > 100 µM | > 100 µM | > 100 µM |
| O=C(Nc1cccc(-n2cc(-c3ccncc3)c(-c3ccc(O)c(Cl)c3)n2)c1)Nc1ccc(Cl)c(Cl)c1 | 3.26 µM | 55.9 µM | 1.8 µM | 4.32 µM |  |  | 1.84 µM | 6.41 µM | 1.56 µM | 2.99 µM | 1.96 µM | 5.92 µM | 1.57 µM | 4.87 µM | 2.29 µM | 7.27 µM |  |  |  |  |
| Cc1c(C)c2ccc(OC(C)C(=O)O)cc2oc1=O (stereo not drawn) |  |  |  |  |  |  |  |  |  | > 100 µM |  |  |  | > 100 µM |  | > 100 µM |  | > 100 µM |  | > 100 µM |
| Nc1c(C(=O)Nc2ccccc2O)[n+]([O-])c2ccccc2[n+]1[O-] |  | > 100 µM |  |  |  |  |  |  |  | 28.3 µM |  |  |  | > 100 µM |  | > 100 µM |  | > 100 µM |  |  |
